The values below come from patent US4365989A, “2-Thiocyanomethylthio-4,4-dialkyl-5-substituted-thiazoline fungicides” (Chevron Research Company, priority 1982, dated 1982).

One assay deals with Plasmopara viticola. Description: Grape Downy Mildew control, detached grape leaves. The class given is in vivo. The note with it: in Vitis vinifera, Vitis vinifera Emperor detached leaves, read-out: % Control Grape D.M. As for the experimental part:
The compounds of the invention were tested for the control of the grape downy mildew organism Plasmopara viticola. Detached leaves, between 70 and 85 mm in diameter, of 7-week old Vitis vinifera cultivar Emperor grape seedlings were used as hosts. The leaves were sprayed with a 250 ppm solution of the test compound in acetone. The sprayed leaves were dried, inoculated with a spore suspension of the organism, placed in a humid environmental chamber and incubated at 66° to 68° F. and about 100% relative humidity. After incubation for two days, the plants were then held in a greenhouse seven to nine days; then the amount of disease control was determined. The percent disease control provided by a given gest compound was based on the percent disease reduction relative to untreated check plants.

A further assay deals with Phytophthora infestans. Description: whole plant or invertebrate. The class given is in vivo. The following applies: in Solanum lycopersicum, read-out: % Control Tom. L. Bl.
A further assay relates to Septoria apii. The class given is in vivo. The note with it: 250 ppm; celery (Utah) plants.
Assay [1] concerns Alternaria solani conidia. Description: Tomato Early Blight control. Type of assay: in vivo. The following applies: 250 ppm; tomato Bonny Best seedlings. As for the experimental part: Compounds of the invention were tested for the control of the tomato Early Blight organism, Alternaria solani conidia. Tomato (variety Bonny Best) seedlings of 6 to 7 weeks old were used. The tomato plants were sprayed with a 250 ppm solution of the test compound in an acetone-and-water solution containing a small amount of a nonionic emulsifier. The sprayed plants were inoculated one day later with the organism, placed in the environmental chamber and incubated at 66° to 68° F. and 100% relative humidity for 24 hours. Following the incubation, the plants were maintained in a greenhouse for about 12 days. Percent diseases control was based on the percent disease development on untreated check plants.

For assay [2], the system named is Mustard (Brassica arvensis). Description: Pre-emergent herbicidal test, Mustard. Type of assay: in vivo. The note with it: 504 h, pre-emergence, 33 micrograms/cm^2, 3 weeks. As for the experimental part: An acetone solution of the test compound was prepared by mixing 750 mg of the compound, 220 mg of a nonionic surfactant and 25 ml of acetone. This solution was added to approximately 125 ml of water containing 156 mg of surfactant.
Seeds of the test vegetation were planted in a pot of […] and the test solution was sprayed uniformly onto the soil surface at a dose of 33 micrograms/cm^2. The pot was watered and placed in a greenhouse. […] At the end of this period, the herbicidal effectiveness of the compound was rated based on the physiological observations. A 0-to-100 scale was used, 0 representing no phytotoxicity, 100 representing complete kill.

The subject of another assay is Piricularia oryzae. Type of assay: in vivo. The note with it: 625 ppm; rice seedlings Calrose M-9.
The test system of the next assay is Pythium Ultimum. Description: Mycelial inhibition, Pythium. The class given is cell-based. The following applies: Globisporangium ultimum, 24 hours, relative to standard DIFOLATAN
How it is done: A number of the compounds of the present invention were evaluated for in-vitro fungicidal effectiveness by means of a mycelial inhibition test. This test is designed to measure the fungitoxic activity of fungicidal chemicals in terms of their degree of inhibition of mycelium growth. Each compound to be tested was dissolved in acetone to 500 ppm concentration. Paper strips were infused with the particular mycelium growth by covering the paper with a potato dextrose broth culture of mycelial suspension. The papers were then placed on potato dextrose agar plates and sprayed by means of a microsprayer with the fungicidal solution. The treated paper strips were incubated at 25° C. and the data is taken after 24 hours. Fungicidal activities are measured by a zone of inhibited mycelial growth from the center of the paper strip. The effectiveness of the compounds tested for fungicidal activity is reported in Table IIa for those compounds which were effective in inhibiting mycelial growth. The activity is reported in terms of [formula]

As for `CC1(C)N=C(SCSC#N)SC1=CSc1ccc(Cl)cc1` [Compound 1, 2-thiocyanomethylthio-4,4-dimethyl-5-(4-chlorophenylthio)methylenethiazoline], the pest or weed control at 250 ppm in the assay with Plasmopara viticola was 100%; with Phytophthora infestans it was 21%. In addition, the “% Control Cel. L. Bl.” value in the assay with Septoria apii was found to be 70%. In assay [1], the “% Control Tom. E. Bl.” value amounted to 47%. The same compound registered a pest or weed control at 33 µg/cm2 in assay [2] of 0%.

For `CC1(C)N=C(SCSC#N)SC1=C(Cl)Cl` [Compound 2, 2-thiocyanomethylthio-4,4-dimethyl-5-dichloromethylenethiazoline], the figures for the pest or weed control at 250 ppm in the assay on Plasmopara viticola and in the assay with Phytophthora infestans were 88% and 0%, respectively. The “% Control Cel. L. Bl.” value in the assay with Septoria apii is 35%. Also, the “% Control Tom. E. Bl.” value in assay [1] came to 67%. Moreover, the pest or weed control at 33 µg/cm2 in assay [2] amounted to 0%.

With `CCC1(CC)N=C(SCSC#N)SC1=CBr` [Compound 5, 2-thiocyanomethylthio-4,4-diethyl-5-bromo-methylenethiazoline], the pest or weed control at 250 ppm in the assay on Plasmopara viticola is 100%; in the assay on Phytophthora infestans, 20%. Also, in the assay on Septoria apii, the “% Control Cel. L. Bl.” value is 96%. For the same compound, in assay [1], the “% Control Tom. E. Bl.” value is on record as 0%. The “% Control Rice Blast” value in the assay with Piricularia oryzae was 90%. For the same compound, the inhibition at 500 ppm in the assay with Pythium Ultimum is 0%. This compound showed a pest or weed control at 33 µg/cm2 in assay [2] of 0%.

For `C=C1SC(SCSC#N)=NC1(CC)CC` [Compound 6, 2-thiocyanomethylthio-4,4-diethyl-5-methylenethiazoline], the pest or weed control at 250 ppm in the assay on Plasmopara viticola and in the assay on Phytophthora infestans was 0% in each case. In the assay with Septoria apii, the “% Control Cel. L. Bl.” value came out at 0%. In addition, the “% Control Tom. E. Bl.” value in assay [1] worked out at 0%. The compound also registered an inhibition at 500 ppm in the assay with Pythium Ultimum of 31%. Also, the pest or weed control at 33 µg/cm2 in assay [2] came out at 58%.

With `C=C1SC(SCSC#N)=NC1(C)C` [Compound 7, 2-Thiocyanomethylthio-4,4-dimethyl-5-methylenethiazoline], the pest or weed control at 250 ppm amounted to 50% with Plasmopara viticola and 75% in the assay on Phytophthora infestans. Moreover, the “% Control Tom. E. Bl.” value in assay [1] amounted to 71%. The same compound came in with an inhibition at 500 ppm in the assay with Pythium Ultimum of 55%. In addition, the pest or weed control at 33 µg/cm2 in assay [2] amounted to 0%.

As to `C=C1SC(SCSC#N)=NC12CCCCC2` [Compound 8], the pest or weed control at 250 ppm in the assay on Plasmopara viticola stood at 100%; with Phytophthora infestans, 29%. The “% Control Tom. E. Bl.” value in assay [1] was determined as 0%. In the assay on Pythium Ultimum, this compound gave an inhibition at 500 ppm of 0%. Besides, the pest or weed control at 33 µg/cm2 in assay [2] was 0%.
